For 21 compounds, inhibition and IC50 results are on record in patent US10668051B2, “Modulators of calcium release-activated calcium channel” (Rhizen Pharmaceuticals SA, priority 2009, dated 2020).

Counter-ions that a name gives are not always drawn.

What all share (format): cell-based
For experiment [1], the system named is NCI-H460 cancer cell line. The experiment can be described thus: In-vitro cell proliferation assay in NCI-H460 cancer cell line (MTT). To be noted: Homo sapiens, 48 h; for IC50: read-out: NCI-H460 Cell line assay G1 50 nM. As to the method:
1C. In-Vitro Cell Proliferation Assay in NCI-H460 Cancer Cell Line (Anticancer Activity)
Growth inhibition assays were carried out using 10% FBS supplemented media. Cells were seeded at a concentration of 5000 cells/well in a 96-well plate. Test compound at a concentration range from 0.01 to 10000 nM were added after 24 h. Growth was assessed using the 3-[4,5-dimethylthiazol-2-yl]-2,5-diphenyltetrazolium bromide (MTT) dye reduction test at 0 h (prior to the addition of the test compound) and 48 h after the addition of test compound. Absorbance was read on a Fluostar Optima (BMG Labtech, Germany) at a wave length of 450 nm. Data were analysed using GraphPad Prism. IC-50 for each compound was determined based on the % inhibition due to the test compound compared to the control.
For methods of cell proliferation assay, see, for example, Mosmann. T., Journal of Immunological Methods, 65(1-2), 55-63, (1983).

The next experiment deals with CRAC channels (Homo sapiens (Human), UniProt Q96D31). Briefly: In-vitro CRAC channel inhibition assay in Jurkat cells (thapsigargin-induced calcium influx). A digest of the protocol: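 Jurkat cells given test compounds in Ca2+/Mg2+-free Hanks buffer for 15 min, then thapsigargin (1 μM final) for 15 min to deplete ER stores. IC50 from percent inhibition of thapsigargin-induced Ca2+ influx.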

Experiment [2] has as its system IL-2. Briefly: Inhibition of cytokine release in Human Whole Blood: IL-2. To be noted: Con A + PMA, 20 h, ELISA, read-out: IC 50 Human Whole Blood IL-2. As to the method:
(§1) 2. In Vitro Inhibition of Cytokine Release in Jurkat Cells, Human Whole Blood and Peripheral Blood Mononuclear Cells (PBMC).
(§2) Inhibition of cytokine IL-2, IL-4, IL-5 and TNF α was determined as described below. • a. Inhibition of IL-2 in Jurkat cells: Cells were incubated with desired concentrations of the inhibitor for 15 min. Cytokine release was induced by the addition of Concanavalin A (25 μg/ml)+Phorbol Myristate Acetate (50 ng/ml) for IL-2 & TNFα or with Phytohemagglutinin ([…]) for IL-4 & IL-5 and incubated at 37° C. in an atmosphere containing […]. Supernatant was collected after 20 h (IL-2 & TNFα) or 48 h (IL-4 & IL-5) for estimation of cytokines by ELISA. Data were analysed using GraphPad Prism. IC50 values for each compound were determined based on the percent inhibition due to the test compound compared to the control. • b. Inhibition of cytokine release in Human Whole Blood (HWB): Freshly collected HWB was diluted with RPMI medium (1:4.5) and added to a 96-well plate. Wells were incubated with desired concentrations of the inhibitor for 15 min. Cytokine release was induced by the addition of Concanavalin A (25 μg/ml)+Phorbol Myristate Acetate (50 ng/ml) for IL-2 & TNFα or with Phytohemagglutinin (5 μg/ml) for IL-4 & IL-5 and incubated at 37° C. in an atmosphere containing […]. Supernatant was collected after 20 h (IL-2 & TNFα) or 48 h (IL-4 & IL-5) for estimation of cytokines by ELISA. Data were analysed using GraphPad Prism. IC50 values for each compound were determined based on the percent inhibition due to the test compound compared to the control. • c. Inhibition of cytokine release in PBMC: PBMC from freshly collected HWB were isolated by density gradient using Histopaque and seeded in a 96-well plate. Cells were incubated with desired concentrations of the inhibitor for 15 min. Cytokine release was induced by the addition of Concanavalin A (25 μg/ml)+Phorbol Myristate Acetate (50 ng/ml) for IL-2 & TNFα or with Phytohemagglutinin (5 μg/ml) for IL-4 & IL-5 and incubated at 37° C. in an atmosphere containing […]. Supernatant was collected after 20 h (IL-2 & TNFα) or 48 h (IL-4 & IL-5) for estimation of cytokines by ELISA. Data were analysed using GraphPad Prism. IC50 values for each compound were determined based on the percent inhibition due to the test compound compared to the control.
Background: ELISA stands for enzyme-linked immunosorbent assay.

Experiment [3] concerns IL-2. Briefly: Inhibition of cytokine release in PBMC: IL-2. To be noted: Homo sapiens, Con A + PMA, 20 h, ELISA, read-out: IC 50 PBMC IL-2. The method, then:
as §1, §2

CRAC channels, sequence (Q96D31 whole entry): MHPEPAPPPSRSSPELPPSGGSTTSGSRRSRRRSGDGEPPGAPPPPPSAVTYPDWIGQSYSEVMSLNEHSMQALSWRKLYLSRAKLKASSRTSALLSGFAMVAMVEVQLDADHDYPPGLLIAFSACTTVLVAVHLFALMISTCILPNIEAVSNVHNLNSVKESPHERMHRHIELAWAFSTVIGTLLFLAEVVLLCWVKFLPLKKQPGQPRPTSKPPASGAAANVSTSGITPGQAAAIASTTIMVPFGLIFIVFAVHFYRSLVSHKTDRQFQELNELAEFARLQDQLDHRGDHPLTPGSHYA

For orientation: inhibition means how much of the control response was suppressed. Compound `O=C(Nc1ccc(-n2nc(C3CC3)cc2C2CC2)cc1)C1(c2ccccc2)CC1` [Example 21, N-[4-(3,5-dicyclopropyl-1H-pyrazol-1-yl)phenyl]-1-phenylcyclopropanecarboxamide] returned an inhibition at 10 µM in experiment [1] of 41%. Further, the inhibition at 1 µM at CRAC channels came to 78.4%.

Take `O=C(Nc1ccc(-n2nc(C(F)(F)F)cc2C2CC2)cc1)c1c(Cl)cncc1Cl` [Example 49, 3,5-dichloro-N-{4-[5-cyclopropyl-3-(trifluoromethyl)-1H-pyrazol-1-yl]phenyl}isonicotinamide]: in the experiment with IL-2 [2], the IC50 was found to be 199 nM. Besides, at CRAC channels, the inhibition at 1 µM is 100%.

As for `O=C(Nc1ccc(-n2nc(C(F)(F)F)cc2C2CC2)c(F)c1)c1ccncc1F` [Example 91, N-{4-[5-cyclopropyl-3-(trifluoromethyl)-1H-pyrazol-1-yl]-3-fluorophenyl}-3-fluoroisonicotinamide], in experiment [1], the inhibition at 10 µM was 92.7% and the IC50 turned out to be 1360 nM. Further, the inhibition at 1 µM on CRAC channels came out at 100%.

`Cc1nnsc1C(=O)Nc1ccc(-n2nc(C(F)(F)F)cc2C2CC2)c(F)c1` [Example 82, N-{4-[5-cyclopropyl-3-(trifluoromethyl)-1H-pyrazol-1-yl]-3-fluorophenyl}-4-methyl-1,2,3-thiadiazole-5-carboxamide]: the values for the IC50 in the experiment with IL-2 [2] and in the experiment with IL-2 [3] were 38.2 nM and 24.6 nM, respectively. On CRAC channels, the inhibition at 1 µM was determined as 100%.

Compound `O=C(Nc1ccc(-n2nc(C(F)(F)F)cc2C2CC2)c(F)c1)c1c(Cl)cncc1Cl` [Example 92, 3,5-dichloro-N-{4-[5-cyclopropyl-3-(trifluoromethyl)-1H-pyrazol-1-yl]-3-fluorophenyl}isonicotinamide] yielded an inhibition at 10 µM in experiment [1] of 100%. Moreover, the inhibition at 1 µM at CRAC channels was found to be 95.8%.

As for `O=C(Nc1ccc(-n2nc(C(F)(F)F)cc2C2CC2)c(F)c1)c1ccncc1` [Example 90, N-{4-[5-cyclopropyl-3-(trifluoromethyl)-1H-pyrazol-1-yl]-3-fluorophenyl}isonicotinamide hydrochloride], in experiment [1], the inhibition at 10 µM amounted to 90.7% and the IC50 stood at 305 nM. Besides, the inhibition at 1 µM on CRAC channels was 100%.

`O=C(Nc1ccc(-n2nc(C(F)(F)F)cc2C2CC2)nc1)c1cccnc1` [Example 111, N-{6-[5-cyclopropyl-3-(trifluoromethyl)-1H-pyrazol-1-yl]pyridin-3-yl}nicotinamide hydrochloride]: in the experiment with IL-2 [2], the IC50 amounted to 82.8 nM. Besides, the inhibition at 1 µM at CRAC channels was 100%.

As to `Cc1ncsc1NC(=O)c1ccc(-n2nc(C(F)(F)F)cc2C2CC2)cc1` [Example 78, 4-[5-cyclopropyl-3-(trifluoromethyl)-1H-pyrazol-1-yl]-N-(4-methylthiazol-5-yl)benzamide], the results for the IC50 with IL-2 [2] and in the experiment on IL-2 [3] were 34.7 nM and 149 nM, respectively. In addition, at CRAC channels, the inhibition at 1 µM is 100%.

Regarding `O=C(Nc1ccc(-n2nc(C(F)(F)F)cc2C2CC2)cc1)c1ccncc1F` [Example 67, N-{4-[5-cyclopropyl-3-(trifluoromethyl)-1H-pyrazol-1-yl]phenyl}-3-fluoroisonicotinamide], the inhibition at 1 µM at CRAC channels was 100%.

For the compound `Cc1oncc1C(=O)Nc1ccc(-n2nc(C(F)(F)F)cc2C2CC2)cc1` [Example 56, N-{4-[5-cyclopropyl-3-(trifluoromethyl)-1H-pyrazol-1-yl]phenyl}-5-methylisoxazole-4-carboxamide], in the experiment with IL-2 [2], the IC50 came to 78.4 nM. For the same compound, the inhibition at 1 µM at CRAC channels worked out at 100%.

For the compound `O=C(Nc1ccc(-n2nc(C3CC3)cc2C2CC2)cc1)c1ccncc1F` [Example 16, N-[4-(3,5-dicyclopropyl-1H-pyrazole-1-yl)phenyl]-3-fluoroisonicotinamide], the inhibition at 1 µM on CRAC channels stood at 92.8%.

As for `Cc1noc(C)c1C(=O)Nc1ccc(-n2nc(C3CC3)cc2C2CC2)c(F)c1` [Example 30, N-[4-(3,5-dicyclopropyl-1H-pyrazol-1-yl)-3-fluorophenyl]-3,5-dimethylisoxazole-4-carboxamide], the inhibition at 1 µM on CRAC channels was 35.1%.

As to `Cn1ccnc1C(=O)Nc1ccc(-n2nc(C(F)(F)F)cc2C2CC2)cc1` [Example 58, N-{4-[5-cyclopropyl-3-(trifluoromethyl)-1H-pyrazol-1-yl]phenyl}-1-methyl-1H-imidazole-2-carboxamide], the inhibition at 1 µM on CRAC channels stood at 40.5%.

As to `O=C(Nc1ccc(-n2nc(C3CC3)cc2C2CC2)cc1)c1c(Cl)cncc1Cl` [Example 17, 3,5-dichloro-N-(4-(3,5-dicyclopropyl-1H-pyrazol-1-yl)phenyl)isonicotinamide], the inhibition at 1 µM at CRAC channels came out at 87.5%.

Take `Cc1ncncc1C(=O)N(C)c1ccc(-n2nc(C(F)(F)F)cc2C2CC2)c(F)c1` [Example 94, N-{4-[5-cyclopropyl-3-(trifluoromethyl)-1H-pyrazol-1-yl]-3-fluorophenyl}-N,4-dimethylpyrimidine-5-carboxamide]: at CRAC channels, the inhibition at 1 µM worked out at 45.4%.

For `O=C(Nc1ccc(-n2nc(C3CC3)cc2C2CC2)c(F)c1)c1c(Cl)cncc1Cl` [Example 127, 3,5-dichloro-N-[4-(3,5-dicyclopropyl-1H-pyrazol-1-yl)-3-fluorophenyl]isonicotinamide], the inhibition at 1 µM at CRAC channels is 66.3%.

With `O=C(Nc1ccc(-n2nc(C3CC3)cc2C2CC2)nc1)c1ccccc1F` [Example 43, N-[6-(3,5-dicyclopropyl-1H-pyrazol-1-yl)pyridin-3-yl]-2-fluorobenzamide], the inhibition at 1 µM on CRAC channels was determined as 9.34%.

For the compound `O=C(Cc1ccc(F)cc1)Nc1ccc(-n2nc(C(F)(F)F)cc2C2CC2)cc1` [Example 70, N-{4-[5-cyclopropyl-3-(trifluoromethyl)-1H-pyrazol-1-yl]phenyl}-2-(4-fluorophenyl)acetamide], at CRAC channels, the inhibition at 1 µM stood at 68.9%.

As for `O=C(Nc1ccc(-n2nc(C3CC3)cc2C2CC2)cc1)c1cccnc1` [Example 14, N-[4-(3,5-dicyclopropyl-1H-pyrazol-1-yl)phenyl]nicotinamide hydrochloride], the inhibition at 1 µM at CRAC channels was found to be 25.9%.

Regarding `O=C(Cc1ccccn1)Nc1ccc(-n2nc(C(F)(F)F)cc2C2CC2)nc1` [Example 117, N-{6-[5-cyclopropyl-3-(trifluoromethyl)-1H-pyrazol-1-yl]pyridin-3-yl}-2-(pyridin-2-yl)acetamide hydrochloride], the inhibition at 1 µM at CRAC channels was determined as 0%.

With `Cc1ncncc1C(=O)Nc1ccc(-n2nc(C(F)(F)F)c(Cl)c2C2CC2)c(F)c1` [Example 119, N-{4-[4-chloro-5-cyclopropyl-3-(trifluoromethyl)-1H-pyrazol-1-yl]-3-fluorophenyl}-4-methylpyrimidine-5-carboxamide], at CRAC channels, the inhibition at 1 µM stood at 40.5%.
